Measured values published in the supplement of paper PMC5844555.

Key:
Assay in all cases: 3' UTR reporter interaction score (median-centred robust z-score of log2 firefly/Renilla activity); higher = less repression of the 3' UTR reporter
Details in all cases: HEK293T; 48 h
BRCA2 = system: BRCA2
Procedure, shortened: (§1)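 The interaction score is based on the log-transformed firefly/Renilla luciferase ratio, scaled as a robust z-score within each plate by median and median absolute deviation and median-centred for each miRNA; more negative scores indicate interaction. It was averaged over at least two independent screens. Readings were taken 48 h after HEK293T cells (10,000/well, 96-well plates) were co-transfected by DharmaFECT Duo with 100 ng firefly luc2P 3' UTR reporter, 20 ng Renilla pRL-TK and 2.5 pmol miRNA mimic.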

EZH2 = system: EZH2
Procedure, shortened: as §1

FBXW7 = system: FBXW7
Procedure, shortened: as §1

HRAS = system: HRAS
Procedure, shortened: as §1

MYB = system: MYB
Procedure, shortened: as §1

MYCN = system: MYCN
Procedure, shortened: as §1

MYC = system: MYC
Procedure, shortened: as §1

MYT1L = system: MYT1L
Procedure, shortened: as §1

NOTCH1 = system: NOTCH1
Procedure, shortened: as §1

PHF6 = system: PHF6
Procedure, shortened: as §1

PHOX2B = system: PHOX2B
Procedure, shortened: as §1

RB1 = system: RB1
Procedure, shortened: as §1

TP53 = system: TP53
Procedure, shortened: as §1

ZEB2 = system: ZEB2
Procedure, shortened: as §1

| Sequence | 3' UTR reporter interaction score (BRCA2) | 3' UTR reporter interaction score (EZH2) | 3' UTR reporter interaction score (FBXW7) | 3' UTR reporter interaction score (HRAS) | 3' UTR reporter interaction score (MYB) | 3' UTR reporter interaction score (MYCN) | 3' UTR reporter interaction score (MYC) | 3' UTR reporter interaction score (MYT1L) | 3' UTR reporter interaction score (NOTCH1) | 3' UTR reporter interaction score (PHF6) | 3' UTR reporter interaction score (PHOX2B) | 3' UTR reporter interaction score (RB1) | 3' UTR reporter interaction score (TP53) | 3' UTR reporter interaction score (ZEB2) |
| --- | --- | --- | --- | --- | --- | --- | --- | --- | --- | --- | --- | --- | --- | --- |
| GACCUGGACAUGUUUGUGCCCAGU | 0.214 | -0.0513 | 0.534 | -0.318 | -0.217 | 0.492 | -0.104 | 0.464 | -0.107 | 0.792 | 0.605 | -0.469 | -0.242 | 2.18 |
| GAGCCAGUUGGACAGGAGC | -1.34 | -0.353 | 0.107 | 0.00377 | 0.363 | 0.298 | -0.0272 | 0.521 | -0.874 | -1.97 | 0.261 | -0.775 | 1 | -0.65 |
| GAGCUUAUUCAUAAAAGUGCAG | 0.117 | 0.564 | -1.75 | 0.562 | 0.663 | 0.314 | 1.07 | -2.82 | -0.458 | -0.038 | -0.299 | 2.05 | -1.36 | -1.29 |
| GAGGUUGUCCGUGGUGAGUUCG | -0.325 | -0.239 | -1.94 | -0.768 | 0.0834 | -0.211 | -2.33 | 0.00527 | 0.138 | -0.125 | 0.511 | -0.327 | -0.45 | 0.323 |
| GAGUGCCUUCUUUUGGAGCGU | -0.0488 | 0.0213 | 0.805 | -0.294 | -0.982 | 0.414 | -0.339 | 1.25 | -0.567 | 2.96 | -3.88 | 0.093 | -0.254 | -0.377 |
| GAUGAGCUCAUUGUAAUAUG | -0.641 | 0.284 | 0.747 | 0.049 | 0.0611 | 0.201 | -0.384 | 1.26 | -0.218 | -0.609 | -0.674 | 0.134 | 0.29 | -1.1 |
| GAUUGCUCUGCGUGCGGAAUCGAC | 0.00588 | 0.471 | -0.34 | -0.851 | -0.474 | -0.19 | -2.18 | -1.1 | -0.0878 | 0.0123 | 0.972 | 0.524 | -0.352 | -0.205 |
| GCAAAGCACACGGCCUGCAGAGA | 0.0737 | 0.138 | 0.141 | -0.313 | 1.11 | -0.217 | 0.499 | -0.692 | 0.357 | 1.65 | -0.597 | -1.65 | -0.0423 | 0.307 |
| GCACAUUACACGGUCGACCUCU | -0.107 | -0.1 | 0.52 | -0.25 | 0.761 | 0.192 | -0.285 | -0.0362 | -0.223 | 0.116 | -1.13 | -0.0189 | -0.315 | 1.19 |
| GCCCCUGGGCCUAUCCUAGAA | 0.566 | 0.389 | 0.0138 | -0.133 | 0.244 | 0.221 | -0.282 | -0.294 | -0.931 | 2.01 | -0.0536 | 0.411 | -0.179 | -0.237 |
| GCCUGCUGGGGUGGAACCUGG | 0.403 | -0.39 | -0.733 | -0.0157 | 0.0969 | -0.962 | 0.0868 | -0.443 | -0.0223 | 0.254 | 0.0382 | 1.37 | -0.747 | 0.26 |
| GCGACCCACUCUUGGUUUCCA | -0.537 | 0.786 | 0.92 | -0.85 | 0.396 | 0.0444 | -0.5 | -0.645 | 0.563 | -1.86 | 0.84 | -2.3 | 0.384 | -0.694 |
| GCGACCCAUACUUGGUUUCAG | 0.00941 | 1.08 | 0.104 | -0.348 | 0.445 | 0.527 | -0.469 | -5.03e-17 | 0.351 | -1.74 | -1.24 | -1.26 | -0.0561 | -0.392 |
| GCGAGGACCCCUCGGGGUCUGAC | 0.357 | -0.18 | 0.437 | 0.0816 | 0.547 | -0.654 | -0.466 | -0.47 | -0.131 | -0.251 | 0.436 | 0.707 | 0.0903 | -0.584 |
| GCGUGCGCCGGCCGGCCGCC | 0.432 | 0.589 | 0.516 | -0.392 | -0.399 | -1.25 | -1.82 | -0.142 | -0.272 | 1.71 | 0.436 | -0.23 | 0.961 | -0.647 |
| GCUAGUCCUGACUCAGCCAGU | 4.86e-17 | -0.186 | 0.368 | -0.409 | 0.624 | 0.0989 | -0.713 | 0.167 | -0.242 | -0.0579 | 0.384 | 0.4 | -0.219 | 0.364 |
| GCUGCGCUUGGAUUUCGUCCCC | -0.029 | -0.09 | -0.688 | -0.573 | 0.616 | 0.248 | 0.388 | 0.46 | 2.01 | 0.794 | -1.97 | 1.16 | -0.861 | 0.715 |
| GCUGGGCAGGGCUUCUGAGCUCCUU | -0.0026 | -0.0238 | -0.37 | -0.298 | 0.00877 | 0.117 | -0.481 | -0.4 | -0.244 | 0.53 | 1.06 | 0.659 | -0.0785 | 0.0169 |
| GGAGAAAUUAUCCUUGGUGUGU | -0.364 | -0.15 | 0.978 | -0.545 | -0.159 | -0.523 | -1.2 | 0.261 | 0.146 | 0.937 | 1.16 | 0.166 | 0.00656 | -0.311 |
